Assay results as given in PubChem BioAssay (NCI).
Values joined by “and” are separate entries in the source; they are usually repeats but may differ in a detail not shown here. Identical values can stand only once.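 In this assay, cells in 96-well plates receive the compound at five concentrations for 48 hours. Endpoints are linearly interpolated between the surrounding concentrations. Here, GI50 denotes the concentration required for 50% inhibition of growth. TGI denotes the concentration required for complete inhibition of growth.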

Columns and labels:
Assay in all cases: inhibition of tumour cell growth, NCI panel, 48 h
786-0 renal = test system: 786-0 renal
A498 renal = test system: A498 renal
A549 NSCLC = test system: A549 NSCLC
ACHN renal = test system: ACHN renal
BT-549 breast = test system: BT-549 breast
CAKI-1 renal = test system: CAKI-1 renal
CCRF-CEM leukemia = test system: CCRF-CEM leukemia
COLO 205 colon = test system: COLO 205 colon
DU-145 prostate = test system: DU-145 prostate
EKVX NSCLC = test system: EKVX NSCLC
HCT-116 colon = test system: HCT-116 colon
HCT-15 colon = test system: HCT-15 colon
HL-60(TB) leukemia = test system: HL-60(TB) leukemia
HOP-62 NSCLC = test system: HOP-62 NSCLC
HOP-92 NSCLC = test system: HOP-92 NSCLC
HT29 colon = test system: HT29 colon
K-562 leukemia = test system: K-562 leukemia
KM12 colon = test system: KM12 colon
LOX IMVI melanoma = test system: LOX IMVI melanoma
M14 melanoma = test system: M14 melanoma
MALME-3M melanoma = test system: MALME-3M melanoma
MDA-MB-231 breast = test system: MDA-MB-231 breast
MDA-MB-435 = test system: MDA-MB-435
MDA-N = test system: MDA-N
MOLT-4 leukemia = test system: MOLT-4 leukemia
NCI-H226 lung = test system: NCI-H226 lung
NCI-H23 lung = test system: NCI-H23 lung
NCI-H460 lung = test system: NCI-H460 lung
NCI-H522 lung = test system: NCI-H522 lung
NCI/ADR-RES ovarian = test system: NCI/ADR-RES ovarian
OVCAR-3 ovarian = test system: OVCAR-3 ovarian
OVCAR-4 ovarian = test system: OVCAR-4 ovarian
OVCAR-5 ovarian = test system: OVCAR-5 ovarian
OVCAR-8 ovarian = test system: OVCAR-8 ovarian
PC-3 prostate = test system: PC-3 prostate
RPMI-8226 leukemia = test system: RPMI-8226 leukemia
SF-268 CNS = test system: SF-268 CNS
SF-295 CNS = test system: SF-295 CNS
SF-539 CNS = test system: SF-539 CNS
SK-MEL-2 melanoma = test system: SK-MEL-2 melanoma
SK-MEL-28 melanoma = test system: SK-MEL-28 melanoma
SK-MEL-5 melanoma = test system: SK-MEL-5 melanoma
SK-OV-3 ovarian = test system: SK-OV-3 ovarian
SN12C renal = test system: SN12C renal
SNB-19 CNS = test system: SNB-19 CNS
SNB-75 CNS = test system: SNB-75 CNS
SW-620 colon = test system: SW-620 colon
T-47D breast = test system: T-47D breast
TK-10 renal = test system: TK-10 renal
U251 CNS = test system: U251 CNS
UACC-257 melanoma = test system: UACC-257 melanoma
UACC-62 melanoma = test system: UACC-62 melanoma
UO-31 renal = test system: UO-31 renal
HCC-2998 colon = test system: HCC-2998 colon
MCF7 breast = test system: MCF7 breast
RXF 393 renal = test system: RXF 393 renal

`Cc1cc(-c2c(Br)cc(C(=O)O)n2C)on1` gave a TGI (786-0 renal) greater than 100 µM, a TGI (A498 renal) greater than 100 µM and a TGI (A549 NSCLC) greater than 100 µM. It also gave a TGI (ACHN renal) greater than 100 µM, a TGI (BT-549 breast) greater than 100 µM and a TGI (CAKI-1 renal) greater than 100 µM. The TGI (CCRF-CEM leukemia) was greater than 100 µM, the TGI (COLO 205 colon) was greater than 100 µM and the TGI (DU-145 prostate) was greater than 100 µM. For the same compound, the TGI (EKVX NSCLC) was greater than 100 µM, the TGI (HCT-116 colon) was greater than 100 µM and the TGI (HCT-15 colon) was greater than 100 µM. The TGI (HL-60(TB) leukemia) was greater than 100 µM, the TGI (HOP-62 NSCLC) was greater than 100 µM and the TGI (HOP-92 NSCLC) was greater than 100 µM. The TGI (HT29 colon) was greater than 100 µM, the TGI (K-562 leukemia) was greater than 100 µM and the TGI (KM12 colon) was greater than 100 µM. For the same compound, the TGI (LOX IMVI melanoma) was greater than 100 µM, the TGI (M14 melanoma) was greater than 100 µM and the TGI (MALME-3M melanoma) was greater than 100 µM. For the same compound, the TGI (MDA-MB-231 breast) was greater than 100 µM, the TGI (MDA-MB-435) was greater than 100 µM and the TGI (MDA-N) was greater than 100 µM. For the same compound, the TGI (MOLT-4 leukemia) was greater than 100 µM, the TGI (NCI-H226 lung) was greater than 100 µM and the TGI (NCI-H23 lung) was greater than 100 µM. The TGI (NCI-H460 lung) was greater than 100 µM, the TGI (NCI-H522 lung) was greater than 100 µM and the TGI (NCI/ADR-RES ovarian) was greater than 100 µM. For the same compound, the TGI (OVCAR-3 ovarian) was greater than 100 µM, the TGI (OVCAR-4 ovarian) was greater than 100 µM and the TGI (OVCAR-5 ovarian) was greater than 100 µM. The TGI (OVCAR-8 ovarian) was greater than 100 µM, the TGI (PC-3 prostate) was greater than 100 µM and the TGI (RPMI-8226 leukemia) was greater than 100 µM. It also gave a TGI (SF-268 CNS) greater than 100 µM, a TGI (SF-295 CNS) greater than 100 µM and a TGI (SF-539 CNS) greater than 100 µM. The TGI (SK-MEL-2 melanoma) was greater than 100 µM, the TGI (SK-MEL-28 melanoma) was greater than 100 µM and the TGI (SK-MEL-5 melanoma) was greater than 100 µM. It also gave a TGI (SK-OV-3 ovarian) greater than 100 µM, a TGI (SN12C renal) greater than 100 µM and a TGI (SNB-19 CNS) greater than 100 µM. The TGI (SNB-75 CNS) was greater than 100 µM, the TGI (SW-620 colon) was greater than 100 µM and the TGI (T-47D breast) was greater than 100 µM. For the same compound, the TGI (TK-10 renal) was greater than 100 µM, the TGI (U251 CNS) was greater than 100 µM and the TGI (UACC-257 melanoma) was greater than 100 µM. For the same compound, the TGI (UACC-62 melanoma) was greater than 100 µM and the TGI (UO-31 renal) was greater than 100 µM.

`CCCCCCCCCCCC[C@H](O)[C@H]1CC[C@H]([C@H](O)CCCC[C@H](O)CCCCC[C@@H](O)CC2=C[C@H](C)OC2=O)O1` gave a GI50 (786-0 renal) of 18.5 µM, a TGI (786-0 renal) of 34.5 µM and a GI50 (A549 NSCLC) of 12.4 µM. For the same compound, the TGI (A549 NSCLC) was 28.5 µM, the GI50 (ACHN renal) was 11.2 µM and the TGI (ACHN renal) was 5.5 µM and 23.8 µM. It also gave a GI50 (BT-549 breast) of 12.7 µM, a GI50 (CAKI-1 renal) of 17.5 µM and a TGI (CAKI-1 renal) of 36.4 µM. For the same compound, the GI50 (CCRF-CEM leukemia) was 5.62 µM, the TGI (CCRF-CEM leukemia) was 27.3 µM and the GI50 (COLO 205 colon) was 16.4 µM. It also gave a TGI (COLO 205 colon) of 32.7 µM, a GI50 (EKVX NSCLC) of 2500 nM and a TGI (EKVX NSCLC) of 10.9 µM. For the same compound, the TGI (HCC-2998 colon) was 33.9 µM, the GI50 (HCT-116 colon) was 636 nM and the TGI (HCT-116 colon) was 22.7 µM. It also gave a GI50 (HCT-15 colon) of 18.7 µM, a TGI (HCT-15 colon) of 57.8 µM and a TGI (HL-60(TB) leukemia) of 8.05 µM. For the same compound, the GI50 (HOP-62 NSCLC) was 17.5 µM, the TGI (HOP-62 NSCLC) was 31.8 µM and the GI50 (HOP-92 NSCLC) was 23.7 µM. It also gave a TGI (HOP-92 NSCLC) of 52.9 µM, a GI50 (K-562 leukemia) of 62.1 nM and a TGI (K-562 leukemia) of 26.9 µM. It also gave a GI50 (KM12 colon) of 16.9 µM, a TGI (KM12 colon) of 35.9 µM and a GI50 (LOX IMVI melanoma) of 2190 nM. The TGI (LOX IMVI melanoma) was 3.72 µM and 22.9 µM, the GI50 (M14 melanoma) was 14.2 µM and the TGI (M14 melanoma) was 27.4 µM. For the same compound, the TGI (MALME-3M melanoma) was 32.2 µM, the GI50 (MCF7 breast) was 10.9 µM and the TGI (MCF7 breast) was 25.4 µM. The GI50 (MDA-MB-231 breast) was 16.2 µM, the TGI (MDA-MB-231 breast) was 40.9 µM and the GI50 (MDA-MB-435) was 15.6 µM. The TGI (MDA-MB-435) was 8.48 µM and 38.8 µM, the GI50 (MDA-N) was 14.3 µM and the TGI (MDA-N) was 30.5 µM. The GI50 (MOLT-4 leukemia) was 3.67 µM, the TGI (MOLT-4 leukemia) was 24.9 µM and the GI50 (NCI-H226 lung) was 17.4 µM. It also gave a TGI (NCI-H226 lung) of 43.3 µM, a GI50 (NCI-H23 lung) of 460 nM and a TGI (NCI-H23 lung) of 22.2 µM. It also gave a GI50 (NCI-H460 lung) of 986 nM, a TGI (NCI-H460 lung) of 22.9 µM and a TGI (NCI-H522 lung) of 19.7 µM. For the same compound, the GI50 (NCI/ADR-RES ovarian) was 14.5 µM, the TGI (NCI/ADR-RES ovarian) was 34.4 µM and the GI50 (OVCAR-3 ovarian) was 17.2 µM. For the same compound, the TGI (OVCAR-3 ovarian) was 9.34 µM and 32.4 µM, the TGI (OVCAR-4 ovarian) was 36.1 µM and the TGI (OVCAR-5 ovarian) was 31.7 µM. The GI50 (PC-3 prostate) was 16.2 µM, the TGI (PC-3 prostate) was 29.8 µM and the TGI (RXF 393 renal) was 33.2 µM. The GI50 (SF-268 CNS) was 17 µM, the TGI (SF-268 CNS) was 40.3 µM and the GI50 (SF-295 CNS) was 3 µM. For the same compound, the TGI (SF-295 CNS) was 20.1 µM, the TGI (SF-539 CNS) was 29.5 µM and the GI50 (SK-MEL-2 melanoma) was 19.9 µM. For the same compound, the TGI (SK-MEL-2 melanoma) was 36.2 µM, the GI50 (SK-MEL-28 melanoma) was 20 µM and the TGI (SK-MEL-28 melanoma) was 41.2 µM. For the same compound, the GI50 (SK-MEL-5 melanoma) was 60.2 nM, the TGI (SK-MEL-5 melanoma) was 15.6 µM and the GI50 (SN12C renal) was 17.8 µM. For the same compound, the TGI (SN12C renal) was 38.8 µM, the GI50 (SNB-19 CNS) was 13.3 µM and the TGI (SNB-19 CNS) was 27.7 µM. The GI50 (SNB-75 CNS) was 16.3 µM, the TGI (SNB-75 CNS) was 31.7 µM and the GI50 (SW-620 colon) was 21.6 µM. For the same compound, the TGI (SW-620 colon) was 64 µM, the GI50 (T-47D breast) was 2820 nM and the TGI (T-47D breast) was 21.6 µM. For the same compound, the GI50 (TK-10 renal) was 13.1 µM, the TGI (TK-10 renal) was 26.8 µM and the TGI (U251 CNS) was greater than 100 µM. For the same compound, the GI50 (UACC-257 melanoma) was 1690 nM, the TGI (UACC-257 melanoma) was 5.81 µM and 19 µM and the TGI (UACC-62 melanoma) was 7.17 µM. For the same compound, the GI50 (UO-31 renal) was 14.6 µM and the TGI (UO-31 renal) was 7.44 µM and 28.8 µM.
